Measured values taken from PubChem BioAssay (NCI).
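Test compounds were applied to cells in 96-well plates for 48 hours at 5 doses. Here, GI50 denotes the concentration required for 50% inhibition of growth. TGI: concentration producing complete growth inhibition.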

How the values were obtained:
Assay in all cases: DTP human tumour cell line panel, 48 h
786-0 renal = test system: 786-0 renal
A549 NSCLC = test system: A549 NSCLC
ACHN renal = test system: ACHN renal
BT-549 breast = test system: BT-549 breast
CAKI-1 renal = test system: CAKI-1 renal
CCRF-CEM leukemia = test system: CCRF-CEM leukemia
COLO 205 colon = test system: COLO 205 colon
DU-145 prostate = test system: DU-145 prostate
EKVX NSCLC = test system: EKVX NSCLC
HCC-2998 colon = test system: HCC-2998 colon
HCT-116 colon = test system: HCT-116 colon
HCT-15 colon = test system: HCT-15 colon
HOP-62 NSCLC = test system: HOP-62 NSCLC
HOP-92 NSCLC = test system: HOP-92 NSCLC
HS 578T breast = test system: HS 578T breast
HT29 colon = test system: HT29 colon
IGROV1 ovarian = test system: IGROV1 ovarian
K-562 leukemia = test system: K-562 leukemia
KM12 colon = test system: KM12 colon
LOX IMVI melanoma = test system: LOX IMVI melanoma
M14 melanoma = test system: M14 melanoma
MCF7 breast = test system: MCF7 breast
MDA-MB-231 breast = test system: MDA-MB-231 breast
MDA-MB-435 = test system: MDA-MB-435
MOLT-4 leukemia = test system: MOLT-4 leukemia
NCI-H226 lung = test system: NCI-H226 lung
NCI-H23 lung = test system: NCI-H23 lung
NCI-H460 lung = test system: NCI-H460 lung
NCI-H522 lung = test system: NCI-H522 lung
NCI/ADR-RES ovarian = test system: NCI/ADR-RES ovarian
OVCAR-3 ovarian = test system: OVCAR-3 ovarian
OVCAR-4 ovarian = test system: OVCAR-4 ovarian
OVCAR-5 ovarian = test system: OVCAR-5 ovarian
OVCAR-8 ovarian = test system: OVCAR-8 ovarian
PC-3 prostate = test system: PC-3 prostate
RPMI-8226 leukemia = test system: RPMI-8226 leukemia
RXF 393 renal = test system: RXF 393 renal
SF-268 CNS = test system: SF-268 CNS
SF-295 CNS = test system: SF-295 CNS
SF-539 CNS = test system: SF-539 CNS
SK-MEL-2 melanoma = test system: SK-MEL-2 melanoma
SK-MEL-28 melanoma = test system: SK-MEL-28 melanoma
SK-MEL-5 melanoma = test system: SK-MEL-5 melanoma
SK-OV-3 ovarian = test system: SK-OV-3 ovarian
SN12C renal = test system: SN12C renal
SNB-19 CNS = test system: SNB-19 CNS
SNB-75 CNS = test system: SNB-75 CNS
SW-620 colon = test system: SW-620 colon
T-47D breast = test system: T-47D breast
TK-10 renal = test system: TK-10 renal
U251 CNS = test system: U251 CNS
UACC-257 melanoma = test system: UACC-257 melanoma
UACC-62 melanoma = test system: UACC-62 melanoma
UO-31 renal = test system: UO-31 renal

O=C(Nc1ccccc1)NS(=O)(=O)c1ccc(-n2nc3c(c2-c2cccs2)Cc2ccccc2-3)cc1
GI50 (786-0 renal): 17.6 µM | TGI (786-0 renal): 35.2 µM | GI50 (A549 NSCLC): 20.8 µM | TGI (A549 NSCLC): > 100 µM | GI50 (ACHN renal): 17.6 µM | TGI (ACHN renal): 38 µM | GI50 (BT-549 breast): 24.1 µM | TGI (BT-549 breast): 67.9 µM | GI50 (CAKI-1 renal): 11.1 µM | TGI (CAKI-1 renal): 44.1 µM | GI50 (CCRF-CEM leukemia): 13.6 µM | TGI (CCRF-CEM leukemia): > 100 µM | GI50 (COLO 205 colon): 44 µM | TGI (COLO 205 colon): > 100 µM | GI50 (DU-145 prostate): 28.6 µM | TGI (DU-145 prostate): 96.2 µM | GI50 (EKVX NSCLC): 26.1 µM | TGI (EKVX NSCLC): 87.2 µM | GI50 (HCC-2998 colon): 15.3 µM | TGI (HCC-2998 colon): 31.8 µM | GI50 (HCT-116 colon): 9.13 µM | TGI (HCT-116 colon): 21.3 µM | GI50 (HCT-15 colon): 16.9 µM | TGI (HCT-15 colon): 44.7 µM | GI50 (HOP-62 NSCLC): 18.1 µM | TGI (HOP-62 NSCLC): 47 µM | GI50 (HOP-92 NSCLC): 12.3 µM | TGI (HOP-92 NSCLC): > 100 µM | GI50 (HS 578T breast): 16.8 µM | TGI (HS 578T breast): 52.5 µM | GI50 (HT29 colon): 26.7 µM | TGI (HT29 colon): > 100 µM | GI50 (IGROV1 ovarian): 21.4 µM | TGI (IGROV1 ovarian): > 100 µM | GI50 (K-562 leukemia): 14 µM | TGI (K-562 leukemia): 76.2 µM | GI50 (KM12 colon): 8.08 µM | TGI (KM12 colon): > 100 µM | GI50 (LOX IMVI melanoma): 12 µM | TGI (LOX IMVI melanoma): 33.6 µM | GI50 (M14 melanoma): 25 µM | TGI (M14 melanoma): 47 µM | GI50 (MCF7 breast): 13.4 µM | TGI (MCF7 breast): > 100 µM | GI50 (MDA-MB-231 breast): 15.3 µM | TGI (MDA-MB-231 breast): 60.8 µM | GI50 (MDA-MB-435): 22.1 µM | TGI (MDA-MB-435): 58.3 µM | GI50 (MOLT-4 leukemia): 15.5 µM | TGI (MOLT-4 leukemia): > 100 µM | GI50 (NCI-H226 lung): 19.2 µM | TGI (NCI-H226 lung): 59 µM | GI50 (NCI-H23 lung): 12.2 µM | TGI (NCI-H23 lung): 29.6 µM | GI50 (NCI-H460 lung): 18.9 µM | TGI (NCI-H460 lung): > 100 µM | GI50 (NCI-H522 lung): 31.5 µM | TGI (NCI-H522 lung): > 100 µM | GI50 (NCI/ADR-RES ovarian): 16.1 µM | TGI (NCI/ADR-RES ovarian): 43 µM | GI50 (OVCAR-3 ovarian): 21.8 µM | TGI (OVCAR-3 ovarian): > 100 µM | GI50 (OVCAR-4 ovarian): 34.9 µM | TGI (OVCAR-4 ovarian): > 100 µM | GI50 (OVCAR-5 ovarian): 20.1 µM | TGI (OVCAR-5 ovarian): 89.7 µM | GI50 (OVCAR-8 ovarian): 28.3 µM | TGI (OVCAR-8 ovarian): > 100 µM | GI50 (PC-3 prostate): 10.4 µM | TGI (PC-3 prostate): > 100 µM | GI50 (RPMI-8226 leukemia): 5.49 µM | TGI (RPMI-8226 leukemia): 66.4 µM | GI50 (RXF 393 renal): 85.3 µM | TGI (RXF 393 renal): > 100 µM | GI50 (SF-268 CNS): 26 µM | TGI (SF-268 CNS): > 100 µM | GI50 (SF-295 CNS): 21.9 µM | TGI (SF-295 CNS): 73.5 µM | GI50 (SF-539 CNS): 25 µM | TGI (SF-539 CNS): 55.5 µM | GI50 (SK-MEL-2 melanoma): 70.1 µM | TGI (SK-MEL-2 melanoma): > 100 µM | GI50 (SK-MEL-28 melanoma): 50.2 µM | TGI (SK-MEL-28 melanoma): > 100 µM | GI50 (SK-MEL-5 melanoma): 15.6 µM | TGI (SK-MEL-5 melanoma): 31.5 µM | GI50 (SK-OV-3 ovarian): 60.8 µM | TGI (SK-OV-3 ovarian): > 100 µM | GI50 (SN12C renal): 19.9 µM | TGI (SN12C renal): 64.2 µM | GI50 (SNB-19 CNS): > 100 µM | TGI (SNB-19 CNS): > 100 µM | GI50 (SNB-75 CNS): 70.4 µM | TGI (SNB-75 CNS): > 100 µM | GI50 (SW-620 colon): 22.9 µM | TGI (SW-620 colon): 51.2 µM | GI50 (T-47D breast): 37.9 µM | TGI (T-47D breast): > 100 µM | GI50 (TK-10 renal): 4.99 µM | TGI (TK-10 renal): 30.8 µM | GI50 (U251 CNS): 22.9 µM | TGI (U251 CNS): 55.3 µM | GI50 (UACC-257 melanoma): 17.7 µM | TGI (UACC-257 melanoma): 67.7 µM | GI50 (UACC-62 melanoma): 15.8 µM | TGI (UACC-62 melanoma): 35 µM | GI50 (UO-31 renal): 32.3 µM | TGI (UO-31 renal): > 100 µM
